Laboratory results as given in article PMC7096398, “Oxytocin Receptors Regulate Social Preference in Zebrafish” (Scientific Reports, 2020).
“Also recorded” adds a separate entry of the source.

How the values were obtained:
[1] = target: T1, Oxtr (Danio rerio, UniProt E4W699); assay: Inositol phosphate accumulation assay, antagonism of 1 μM zVP at Oxtr; type: cell-based, zebrafish; conditions: stimulated with zVP
T1 construct: host or cells: HEK293
T1 sequence (E4W699 1-388): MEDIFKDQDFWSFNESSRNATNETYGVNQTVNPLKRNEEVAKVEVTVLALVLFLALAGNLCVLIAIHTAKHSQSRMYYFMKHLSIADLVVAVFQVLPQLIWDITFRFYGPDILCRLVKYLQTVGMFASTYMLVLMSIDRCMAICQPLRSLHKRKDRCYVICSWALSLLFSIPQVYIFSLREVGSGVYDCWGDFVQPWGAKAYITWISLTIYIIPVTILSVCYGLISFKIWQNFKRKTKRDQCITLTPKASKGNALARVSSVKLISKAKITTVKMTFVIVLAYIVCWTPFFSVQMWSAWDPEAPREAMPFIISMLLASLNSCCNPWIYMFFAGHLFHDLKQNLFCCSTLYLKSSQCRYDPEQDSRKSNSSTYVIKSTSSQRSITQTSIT
Procedure: The receptor constructs were ordered from GeneScript and subcloned into a pcDNA3.1/CT-GFP-TOPO vector. The coding sequences of the GenBank entries NM_001199370.1 (oxtr), NM_001199369.1 (oxtrl), NM_001301114.1 (avpr1aa), and NM_001297676.1 (avpr1ab) were used for synthesis. The stop codons were removed, and an additional […] was added to facilitate hybrid protein expression with GFP in frame from the vector. The GCCACC Kozak sequence was inserted before the start codons. After transformation of the plasmid constructs into TOP10 competent cells (Thermo Fisher Scientific), the Maxiprep (Thermo Fisher Scientific) method was used to amplify the plasmids for transfection.
The Inositol phosphate accumulation assay was performed according to previous descriptions to measure the potency of different ligands for zebrafish different oxytocin related receptors. Each receptor construct was transfected into HEK293 cells using Lipofectamine 2000 (Thermo Fisher Scientific). Myo2-^3H-inositol (PerkinElmer) at 3 μCi/mL was added the day after transfection. […] Samples were mixed with OptiPhase HiSafe (PerkinElmer Waltham, MA, USA) and ^3H radioactivity was measured with a Tri-Carb 2910TR liquid scintillation counter (PerkinElmer Waltham, MA, USA). […]

[2] = system: adult zebrafish; assay: Novel tank diving in adult zebrafish; type: in vivo, zebrafish (Danio rerio)
Procedure: Adult and larval behavioural testing was performed between 9 AM and 4 PM. All fish were fed prior to and after experiments, and larvae were also given an additional feed at midday. Adult fish were of a 1:1 sex ratio, and focal fish and stimulus fish were size-matched. Adult fish and shoals were filmed using a web camera and Debut Video Capture Software (NCH Software, Greenwood Village, USA), and videos were analysed using EthoVision version 11 (Noldus, Wageningen, the Netherlands).
A novel tank diving test was executed individually in order to examine the effect of the antagonist on anxiety in zebrafish. Anxiety-like behaviour in zebrafish is evident in a tendency to move towards the bottom of novel environments. The novel tank diving test used here has been described elsewhere. In brief, the same procedure as for the shoaling test described above was used, except that fish were housed in groups of 4–6 individuals 24 hours prior to the experiment in order to keep netting and potential stress to a minimum, and each fish was placed the test tank individually. A total of 20 vehicle-treated fish and 20 antagonist-treated fish were tested.
All data for the social preference and novel tank diving experiments in adults were extracted as processed means per minute from EthoVision. For the shoaling experiments, raw data was exported from EthoVision, and then post-processed by an in-house script written in Python 3.4, in order to compute IFD, NND, and FND as described elsewhere. For timelines, repeated measures analysis of variance (RM-ANOVA) was used. For pairwise comparisons of total means between groups, Student’s T-tests were used.

[3] = system: OT receptor; conditions: cited from earlier work
Description: Intriguingly, the non-peptidergic OT receptor antagonist L-368,8 ...

[4] = system: zebrafish; design: method as in 4 sources, ref 42 = [42]; PMID 21956239; doi:10.1007/s00213-011-2482-2; 42. Braida D Neurohypophyseal hormones manipulation modulate social and anxiety-related behavior in zebrafish Psychopharmacology (Berl) 2012 220 319 330 10.1007/s00213-011-2482-2 21956239 ||| ref 44 = [44]; PMID 27247142; doi:10.1016/j.bbr.2016.05.059; 44. Zimmermann FF Gaspary KV Siebel AM Bonan CD Oxytocin reversed MK-801-induced social interaction and aggression deficits in zebrafish Behav Brain Res 2016 311 368 374 10.1016/j.bbr.2016.05.059 2724 ||| ref 51 = [51]; doi:10.1163/1568539x-00003261; 51. Lindeyer CM Langen EMA Swaney WT Reader SM Nonapeptide influences on social behaviour: effects of vasotocin and isotocin on shoaling and interaction in zebrafish Behaviour 2015 152 897 915 10.1163 ||| ref 27 = [27]; PMID 26347614; doi:10.3389/fncir.2015.00039; 27. Dreosti E Lopes G Kampff AR Wilson SW Development of social behavior in young zebrafish Front Neural Circuits 2015 9 39 10.3389/fncir.2015.00039 26347614 PMC4539524; conditions: cited from earlier work
Description: Thus far, dopamine[56] and serotonin[57] in the mesolimbic system and excitation-inhibition balance[58] seem to play a prominent role in social investigation in rodents. Similarly, levels of dopamine and serotonin are modulated in socially interacting fish[59]–[61] and social preference behaviour decreases after treatment with a dopamine D1 receptor antagonist. […] In rodents, release of ... || (+ 1 further places)

Cc1ccccc1N1CCN(S(=O)(=O)C[C@]23CC[C@H](C[C@@H]2NC(=O)[C@@H](N)CCS(C)(=O)=O)C3(C)C)CC1 [L-368,899]
Antagonism at Oxtr, in words [1]: able to block zVP activation; also recorded: specifically inhibited; also recorded: potently antagonised | Anxiety behaviour: Distance to bottom ([2]; adult novel tank diving, i.p., 1 h before test, mean ± SEM, n = 20, vehicle 2.7 ± 0.4): 3.1 ± 0.4 cm | Locomotion: Velocity ([2]; adult novel tank diving, i.p., 1 h before test, mean ± SEM, n = 20, vehicle 3.1 ± 0.2, p = 0.47): 2.9 ± 0.2 cm/s | Anxiety behaviour: Duration in top zone ([2]; adult novel tank diving, i.p., 1 h before test, mean ± SEM, n = 20, vehicle 7.0 ± 2.4): 8.8 ± 2.4 s/min | Locomotion: Distance ([2]; adult novel tank diving, i.p., 1 h before test, mean ± SEM, n = 20, vehicle 186 ± 11, p = 0.49): 174 ± 14 cm/min | Anxiety behaviour: Latency to top zone ([2]; adult novel tank diving, i.p., 1 h before test, mean ± SEM, n = 20, vehicle 327 ± 58): 387 ± 81 s | Anxiety, in words ([2]; adults, antagonist vs vehicle): did not affect anxiety; also recorded: no differences in any of the anxiety parameters | Activity parameters vs vehicle, novel tank diving test ([2]; average distance p = 0.49, average velocity p = 0.47): no significant differences | Inhibition of the OT receptor in mammals [3]: specifically inhibit the mammalian OT receptor | Social preference, compound by itself ([4]; adult zebrafish): did not decrease social preference | Social deficits following MK-801 exposure ([4]; zebrafish exposed to glutamate antagonist MK-801): did not reverse those deficits
